Target: MDR1 (P-glycoprotein, ABCB1) (Homo sapiens, UniProt P08183)
Assay: TP_TRANSPORTER: ATP hydrolysis in membranes from MDR1-expressing insect cells
Type: functional, cell membranes, insect cell, Membrane

Sequence of MDR1 (P-glycoprotein, ABCB1) (P08183 whole entry): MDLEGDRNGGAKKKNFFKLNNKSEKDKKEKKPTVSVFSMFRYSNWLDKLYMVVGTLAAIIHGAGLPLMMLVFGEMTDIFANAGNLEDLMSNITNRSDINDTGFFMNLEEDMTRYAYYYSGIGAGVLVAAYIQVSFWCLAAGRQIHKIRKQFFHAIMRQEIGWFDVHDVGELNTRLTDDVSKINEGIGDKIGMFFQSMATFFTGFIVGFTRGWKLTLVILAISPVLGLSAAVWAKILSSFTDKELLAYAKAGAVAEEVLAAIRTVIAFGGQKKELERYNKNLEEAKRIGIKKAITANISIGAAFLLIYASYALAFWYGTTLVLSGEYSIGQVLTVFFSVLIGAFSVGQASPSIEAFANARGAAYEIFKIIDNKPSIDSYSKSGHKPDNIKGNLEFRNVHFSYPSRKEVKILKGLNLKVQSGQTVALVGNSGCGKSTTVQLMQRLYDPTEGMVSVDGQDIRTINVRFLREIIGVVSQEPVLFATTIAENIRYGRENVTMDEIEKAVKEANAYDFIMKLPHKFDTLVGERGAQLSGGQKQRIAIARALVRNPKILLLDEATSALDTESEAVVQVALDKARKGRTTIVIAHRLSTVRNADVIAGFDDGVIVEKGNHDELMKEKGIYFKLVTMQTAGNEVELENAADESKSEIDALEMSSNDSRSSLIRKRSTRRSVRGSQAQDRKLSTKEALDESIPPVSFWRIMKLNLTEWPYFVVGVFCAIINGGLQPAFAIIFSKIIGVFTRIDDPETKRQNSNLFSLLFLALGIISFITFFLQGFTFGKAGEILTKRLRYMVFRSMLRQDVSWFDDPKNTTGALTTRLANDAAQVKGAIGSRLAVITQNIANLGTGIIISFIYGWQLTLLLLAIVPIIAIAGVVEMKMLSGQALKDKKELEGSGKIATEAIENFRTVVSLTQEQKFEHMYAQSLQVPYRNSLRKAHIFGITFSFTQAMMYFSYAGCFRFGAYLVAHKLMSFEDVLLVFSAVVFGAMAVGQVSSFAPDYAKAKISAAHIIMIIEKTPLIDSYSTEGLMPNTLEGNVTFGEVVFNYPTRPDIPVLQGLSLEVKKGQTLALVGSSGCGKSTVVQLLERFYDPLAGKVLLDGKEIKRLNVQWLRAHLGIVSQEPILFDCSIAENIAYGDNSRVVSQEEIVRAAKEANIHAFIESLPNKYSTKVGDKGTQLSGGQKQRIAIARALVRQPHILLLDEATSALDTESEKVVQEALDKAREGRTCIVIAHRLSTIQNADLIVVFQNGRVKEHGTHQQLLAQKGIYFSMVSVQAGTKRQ

Km [µM]	SMILES
33	O=C(CCCN1CCC(O)(c2ccc(Cl)cc2)CC1)c1ccc(F)cc1 [HALOPERIDOL]
27.4	CN(C)CCCN1c2ccccc2Sc2ccc(Cl)cc21 [CHLORPROMAZINE]

SMILES	Km [µM]
Cc1cc2c(s1)Nc1ccccc1N=C2N1CCN(C)CC1 [OLANZAPINE]	8.3
